Results: PubChem BioAssay (NCI)
Several values for one entry are separate records, joined by “and”; a condition that tells them apart may be missing. Equal entries are not always repeated.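 Dose response: 5 concentrations. Exposure: 48 h. Format: 96-well plates. Endpoint: linear interpolation; highest concentration if not reached. The concentration for 50% growth inhibition is given as GI50. The concentration for full growth arrest is given as TGI.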

Experiments:
Experiment in all cases: DTP human tumour cell line panel, 48 h
[1] = test system: MDA-MB-435
[2] = test system: SF-539 CNS
[3] = test system: SNB-19 CNS
[4] = test system: SK-MEL-2 melanoma
[5] = test system: SF-268 CNS
[6] = test system: A498 renal
[7] = test system: TK-10 renal
[8] = test system: CCRF-CEM leukemia
[9] = test system: EKVX NSCLC
[10] = test system: SK-MEL-5 melanoma

Structure (SMILES)	GI50 [1]	TGI [1]	TGI [2]	GI50 [3]	TGI [3]	TGI [4]	TGI [5]	GI50 [6]	TGI [6] [µM]	TGI [7] [µM]	TGI [8] [µM]	TGI [9]	TGI [10]	GI50 [2] [µM]	GI50 [4] [µM]	GI50 [5] [µM]	GI50 [7] [µM]	GI50 [8] [µM]	GI50 [9] [µM]	GI50 [10] [µM]
Cc1ccc(OCC2OC(n3cnc4c(Cl)ncnc43)CC2Oc2ccc(C)cc2)cc1 (stereo not drawn)	5.84 µM and 2 µM	21 µM and 16.4 µM	50.6 µM and 36.1 µM	2.8 µM and 17 µM	6.86 µM and 33.4 µM	30.2 µM and 33.8 µM	21.8 µM and 26.9 µM	20.4 µM and > 44.5 µM	> 70.8	> 100	> 40	7.18 µM and 10.2 µM	30.5 µM and 34.9 µM	–	–	–	–	–	–	–
O=C(O)c1cc(Cl)cc2c1NC1(N2)C(=O)Nc2ccccc21 (stereo not drawn)	–	> 100 µM	> 100 µM	–	> 100 µM	> 100 µM	> 100 µM	–	> 100	> 100	> 100	> 100 µM	> 100 µM	–	–	–	–	–	–	–
COc1cc(OC)c2c(O)c(S(=O)(=O)c3ccc(C)cc3)c(=O)oc2c1	–	> 100 µM	> 100 µM	–	> 100 µM	> 100 µM	> 100 µM	–	> 100	> 100	> 100	> 100 µM	> 100 µM	–	–	–	–	–	–	–
CCn1c2ccc(O)c(C(=O)OC)c2c2cc3ccccc3c(O)c21	–	48.3 µM	49.2 µM	–	> 100 µM	36.6 µM	63.6 µM	–	39.5	55.7	70	67.4 µM	38.5 µM	–	–	–	–	–	–	–
COC(=O)/C(=C\c1ccco1)P(=O)(OC)OC	–	> 100 µM	65.9 µM	–	> 100 µM	83.4 µM	> 100 µM	–	> 100	> 100	94.2	> 100 µM	> 100 µM	–	–	–	–	–	–	–
Clc1nc(Nc2nc3ccccc3[nH]2)nc(Cl)c1Cc1ccccc1	–	> 100 µM	> 100 µM	–	> 100 µM	> 100 µM	> 100 µM	–	> 100	> 100	> 100	> 100 µM	> 100 µM	–	–	–	–	–	–	–
Oc1nc(N/N=C/c2ccccc2)[nH]c1/C=C1\C=Nc2ccccc21	–	> 100 µM	> 100 µM	–	> 100 µM	> 100 µM	> 100 µM	–	> 100	> 100	74.3	> 100 µM	> 100 µM	–	–	–	–	–	–	–
CC(=O)O[C@H]1CN(S(=O)(=O)c2ccc(C)cc2)C[C@@H]1C1CCCCC1	–	70.5 µM	10.5 µM	–	> 100 µM	37.7 µM	90.8 µM	–	> 100	72.2	> 100	52.8 µM	31.9 µM	–	–	–	–	–	–	–
CC(C)(C)OC(=O)NCC(=O)NC1C/C(=N\O)c2sccc21 (stereo not drawn)	–	> 100 µM	> 100 µM	–	> 100 µM	> 100 µM	> 100 µM	–	> 100	> 100	> 100	> 100 µM	> 100 µM	–	–	–	–	–	–	–
COc1ccc(/C(=N/Nc2nc3ccccc3[nH]2)C(=O)O)cc1	–	> 100 µM	> 100 µM	–	> 100 µM	> 100 µM	> 100 µM	–	> 100	> 100	> 100	> 100 µM	> 100 µM	–	–	–	–	–	–	–
CN(C)Cc1cc(C(=O)/C=C/c2cccc(Cl)c2)cc(CN(C)C)c1O	–	12.6 µM	19.5 µM	–	69.9 µM	26 µM	24.1 µM	–	14.2	22	8.25	25.4 µM	6.92 µM	–	–	–	–	–	–	–
CC(NNC(=O)c1ccncc1)c1ccc(Cl)c(Cl)c1 (stereo not drawn)	–	> 100 µM	> 100 µM	–	> 100 µM	> 100 µM	> 100 µM	–	> 100	> 100	> 100	> 100 µM	> 100 µM	–	–	–	–	–	–	–
COC1=CC(=O)c2c(O)c3c(c(O)c2C1=O)C[C@](C)(O)C[C@@H]3O	–	3.34 µM	9.89 µM	–	14.7 µM	14.3 µM	32.8 µM	–	20.1	64.3	33.9	23.6 µM	2.64 µM	–	–	–	–	–	–	–
COc1cc(OC)cc(-c2n/c(=C\c3c(O)[nH]c4ccc(Cl)cc34)cc3c2=Nc2ccccc2-3)c1	14 µM	35.4 µM	45.8 µM	3.54 µM	16.1 µM	43.4 µM	11.4 µM	30.9 µM	> 100	8.96	> 100	37.8 µM	62.5 µM	20.4	20.8	3.35	3.79	3.34	13.6	17.7
CNC(=S)N/N=C(\C)c1nc2ncccc2[nH]1	–	> 100 µM	> 100 µM	–	> 100 µM	> 100 µM	> 100 µM	–	> 100	> 96.1	> 100	> 100 µM	> 100 µM	–	–	–	–	–	–	–
